Drawing on PubChem BioAssay (NCI), this text covers TGI and GI50 for 13 compounds.

Among the test systems are HOP-62 NSCLC; HS 578T breast; COLO 205 colon; NCI-H522 lung; SN12C renal; TK-10 renal; UACC-62 melanoma; LOX IMVI melanoma; OVCAR-5 ovarian; CAKI-1 renal.
What all share (assay): inhibition of tumour cell growth, NCI panel, 48 h

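These data come from cells grown in 96-well plates and exposed to compound for 48 hours at five concentrations. Here, GI50 denotes the concentration required for 50% inhibition of growth. TGI denotes the concentration required for complete inhibition of growth.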

In the case of `Cc1ccc(C(=O)OC[C@H]2CC[C@@H](n3cc(N(C)C4CCCCC4)c(=O)[nH]c3=O)O2)cc1`, the TGI with HOP-62 NSCLC was 41.7 µM; in the experiment on HS 578T breast it was above 100 µM; in the experiment on COLO 205 colon, 39.5 µM; with NCI-H522 lung, 46.6 µM; in the experiment with SN12C renal, 39.5 µM; in the experiment with TK-10 renal, 95.2 µM. For the same compound, the TGI was 96.2 µM in the experiment with UACC-62 melanoma, 38.2 µM with LOX IMVI melanoma, 81 µM in the experiment on OVCAR-5 ovarian and above 100 µM with CAKI-1 renal.
For the compound `CN(C)C(=S)N/N=C\C=N/NC(=S)N(C)C`, the TGI in the experiment with HS 578T breast is above 23.4 µM; with COLO 205 colon, above 100 µM; in the experiment with NCI-H522 lung, above 85.3 µM; with SN12C renal, 11.1 µM; in the experiment with TK-10 renal, above 100 µM; in the experiment on UACC-62 melanoma it was 22 µM. Besides, the TGI in the experiment on LOX IMVI melanoma, in the experiment on OVCAR-5 ovarian and in the experiment on CAKI-1 renal was above 100 µM throughout.
As to `O=c1[nH]nc(Cc2ccccc2)n1/N=C/c1c[nH]c2ccccc12`, the TGI was above 100 µM in the experiment on HOP-62 NSCLC; 79.4 µM in the experiment on HS 578T breast; above 100 µM in the experiment with COLO 205 colon; above 100 µM in the experiment on NCI-H522 lung; above 100 µM in the experiment with SN12C renal; above 100 µM in the experiment with TK-10 renal. Besides, the TGI was above 100 µM in the experiment with UACC-62 melanoma, above 100 µM in the experiment with LOX IMVI melanoma, above 100 µM in the experiment with OVCAR-5 ovarian and 81.8 µM with CAKI-1 renal.
`Cc1ccc(C(=O)N(C2CCCCC2)C2CCCCC2)cc1N=NN(C)C`: the TGI was found to be 25.2 µM in the experiment with HOP-62 NSCLC; 43.9 µM with HS 578T breast; 33.6 µM in the experiment with COLO 205 colon; 16.7 µM in the experiment on NCI-H522 lung; 28.7 µM in the experiment with SN12C renal; 24 µM in the experiment on TK-10 renal. The TGI with UACC-62 melanoma turned out to be 21.6 µM; in the experiment on LOX IMVI melanoma, 30.2 µM; in the experiment with OVCAR-5 ovarian, 38.2 µM; with CAKI-1 renal, 27.2 µM.
For the compound `CC(=O)OC[C@H]1O[C@@H](O[C@H]2[C@H](OC(C)=O)C=CO[C@@H]2COC(C)=O)C(OC(C)=O)[C@H]2OC(C)(C)O[C@H]21` (stereo not given in full), the TGI was above 100 µM with HOP-62 NSCLC; above 100 µM in the experiment with HS 578T breast; above 100 µM with COLO 205 colon; 35.7 µM with NCI-H522 lung; above 100 µM in the experiment with SN12C renal; above 100 µM with TK-10 renal. The TGI with UACC-62 melanoma, with LOX IMVI melanoma, in the experiment on OVCAR-5 ovarian and in the experiment with CAKI-1 renal was above 100 µM each time.
Consider `CCOC(=O)/C(=C\NCC(O)c1ccccc1)c1nc2ccccc2[nH]1` (stereo not given), for which the TGI with HOP-62 NSCLC was above 100 µM; with HS 578T breast it was 39.5 µM; in the experiment with COLO 205 colon it was 49.8 µM; in the experiment with NCI-H522 lung it was 49 µM; with SN12C renal it was above 100 µM; in the experiment on TK-10 renal, above 100 µM. The TGI in the experiment on UACC-62 melanoma is 34.8 µM; with LOX IMVI melanoma, 37.7 µM; with OVCAR-5 ovarian, 83.8 µM; with CAKI-1 renal it was above 100 µM.
In the case of `C=CC[C@H]1[C@@H](O[Si](C)(C)C(C)(C)C)[C@H](n2ccc(=O)[nH]c2=O)O[C@@H]1CO[Si](C)(C)C(C)(C)C`, the TGI in the experiment on HOP-62 NSCLC is 4 µM; with HS 578T breast, 12.2 µM; in the experiment with COLO 205 colon, 3.4 µM; in the experiment with NCI-H522 lung, 3.93 µM; in the experiment with SN12C renal, 3.32 µM; in the experiment on TK-10 renal, 7.02 µM. For the same compound, the TGI in the experiment on UACC-62 melanoma is 3.5 µM; in the experiment with LOX IMVI melanoma, 3.44 µM; in the experiment with OVCAR-5 ovarian, 3.91 µM; with CAKI-1 renal, 4.42 µM.
Regarding `Brc1ccc(N=NN2CCCCC2)cc1`, the TGI in the experiment on HOP-62 NSCLC, in the experiment on HS 578T breast, in the experiment with COLO 205 colon, with NCI-H522 lung, with SN12C renal and in the experiment with TK-10 renal was above 100 µM each time. In addition, the TGI in the experiment on UACC-62 melanoma, with LOX IMVI melanoma, in the experiment with OVCAR-5 ovarian and in the experiment on CAKI-1 renal was above 100 µM throughout.
`OC(C1CCC=NN1C(O)(C(F)(F)F)C(F)(F)F)(C(F)(F)F)C(F)(F)F` (stereo not given): the TGI in the experiment with HOP-62 NSCLC, with HS 578T breast, in the experiment on COLO 205 colon, with NCI-H522 lung, with SN12C renal and in the experiment on TK-10 renal was above 10 µM throughout. For the same compound, the TGI in the experiment with UACC-62 melanoma, in the experiment on LOX IMVI melanoma, in the experiment on OVCAR-5 ovarian and with CAKI-1 renal was above 10 µM throughout.
For `CC(C)(CN)CN`, the TGI in the experiment on HOP-62 NSCLC, in the experiment on HS 578T breast, in the experiment on COLO 205 colon, with NCI-H522 lung, in the experiment with SN12C renal and with TK-10 renal was above 100 µM throughout. Moreover, the TGI in the experiment on UACC-62 melanoma, in the experiment on LOX IMVI melanoma, with OVCAR-5 ovarian and in the experiment with CAKI-1 renal was above 100 µM each time.
On to `Oc1ccc(/C=C\c2nnc(/C=C\c3ccc(O)c(O)c3)s2)cc1O`, for which the TGI with HOP-62 NSCLC stood at 21.8 µM; in the experiment with HS 578T breast, 28.7 µM; with COLO 205 colon it was 22.5 µM; in the experiment on NCI-H522 lung, 3.29 µM; in the experiment with SN12C renal, 24 µM; with TK-10 renal, 21.4 µM. Moreover, the TGI is 14 µM in the experiment on UACC-62 melanoma, above 55.2 µM in the experiment with LOX IMVI melanoma, above 86.5 µM in the experiment on OVCAR-5 ovarian and 16.8 µM with CAKI-1 renal.
As for `Cn1ccnc1S/C(=C\C=C(C#N)C#N)c1ccc(Cl)cc1`, the TGI is 11.1 µM in the experiment with HOP-62 NSCLC; 13.6 µM with HS 578T breast; above 35.6 µM with COLO 205 colon; 11.5 µM in the experiment with NCI-H522 lung; above 25.7 µM in the experiment on SN12C renal; 2.81 µM with TK-10 renal. The TGI with UACC-62 melanoma came to 9.36 µM; with LOX IMVI melanoma, 0.443 µM; in the experiment on OVCAR-5 ovarian, 7.81 µM; in the experiment on CAKI-1 renal, 6.16 µM. The GI50 in the experiment with LOX IMVI melanoma was 67.1 nM.
Turning to `CC(C)/C(Cl)=N/OC(=O)Nc1ccc(F)c(Cl)c1`, the TGI turned out to be 32.8 µM with HOP-62 NSCLC; 53.3 µM in the experiment with HS 578T breast; 3.25 µM in the experiment with COLO 205 colon; 3.01 µM with NCI-H522 lung; 3.21 µM in the experiment on SN12C renal; 31.9 µM in the experiment with TK-10 renal. Besides, the TGI with UACC-62 melanoma was determined as 27.3 µM; in the experiment with LOX IMVI melanoma, 3.59 µM; in the experiment with OVCAR-5 ovarian, 34.6 µM; with CAKI-1 renal it was 3.06 µM.
